Results published in ChEMBL document CHEMBL1157539, “Thousands of chemical starting points for antimalarial lead identification” (Nature, 2010).

tested on: Plasmodium falciparum; test: GSK_TCMDC: Inhibition of Plasmodium falciparum 3D7 in whole erythrocytes, using parasite LDH activity as an index of growth.; type: functional, organism-based; settings: not given

| SMILES | XC50 |
| --- | --- |
| Cc1ccc(C)c(C=CC(=O)NC2CCC(CN3CCC(c4c[nH]c5ccccc45)CC3)CC2)c1 (centres undefined) | 698 nM |

same assay, conditions: Plasmodium falciparum, 3D7

| SMILES | XC50 |
| --- | --- |
| Cc1ccc(-c2ccn(Cc3ccc(OCc4ccccc4)cc3)n2)cn1.Cc1ccc(-c2ccnn2Cc2ccc(OCc3ccccc3)cc2)cn1 | 674 nM |
| CN1CCN(CCCN(Cc2csc(-c3ccc(CNCc4ccccc4)cc3)n2)C(=O)Nc2cc(Cl)cc(Cl)c2)CC1 | 700 nM |
| c1nc(CCNc2nc(Nc3ccc4c(c3)OCO4)nc(NC3CCCC3)n2)c[nH]1 | 1150 nM |
| O=C(Nc1ccc(Cn2ncc(N3CCCNCC3)c(Cl)c2=O)cc1)Nc1ccc(F)cc1[N+](=O)[O-] | 1100 nM |
| CCC1CN2CCc3c([nH]c4ccccc34)C2CC1CC1NCCc2cc(OC)c(OC)cc21 (centres undefined) | 836 nM |
| NC1CCN(Cc2cccc(-c3csc(-c4nc5ccccc5[nH]4)c3)c2)C1 (centres undefined) | 892 nM |
| COc1ccc(C#Cc2ccc(-c3c(C)[nH]c(C)c(Cl)c3=O)cc2)cc1 | 66.5 nM |
| CSc1cccc(Nc2nc3ccc(S(=O)(=O)NCC(C)C)cc3n2C(C)C(C)C)c1 (centres undefined) | 824 nM |
| COc1ccc(C(=O)CCC(=O)N(Cc2ccc(-c3ccc(CNCCc4ccc(S(C)(=O)=O)cc4)cn3)cc2)C2CCN(Cc3ccccc3)CC2)cc1F | 437 nM |
| Cc1ccc(C(=O)Nc2cc(C(F)(F)F)cc(C(F)(F)F)c2)cc1[N+](=O)[O-] | 927 nM |
| COc1ccc2ncc(F)c(CCN3CC(O)C(CNCc4ccc5c(c4)OCCO5)C3)c2n1 (centres undefined) | 927 nM |
| Cn1ccnc1CCC(=O)Nc1ccc(Cl)cc1C(=O)Nc1ccc(Cl)cc1 | 1560 nM |
| O=C(Nc1cccc(-c2cccc(-c3nc4ccccc4[nH]3)c2)c1)c1cccnc1 | 646 nM |
| O=C(Cc1ccc(Cl)cc1)Nc1cc(Cl)ccc1Cn1cnc(N2CCNCC2)cc1=O | 998 nM |
| CN1CCCN(Cc2ccc(-c3cccc(NC(=O)c4cccc(C#N)c4)c3)cc2)CC1 | 651 nM |
| COc1ccc2ncc(F)c(CCN3CCC(NCc4cc(F)c5c(c4)OCCO5)CC3)c2n1 | 346 nM |
| COc1ccc(CNCc2ccc(-c3ccc(-c4nc5ccccc5[nH]4)cc3)cc2)cc1 | 241 nM |
| CN1CCCc2ccc(NC(=O)c3cnc(-c4ccccc4)cn3)cc21 | 905 nM |
| CC(C)CNCc1cccc(-c2cccc(CN(CCCN3CCN(C)CC3)C(=O)CCC3CCCC3)c2)c1 | 624 nM |
| Cc1ccc(CN2CCN(c3cc4c(cc3Cl)CCN4C(=O)Cc3ccc(Cl)c(NC(=O)Nc4cccc(C#N)c4)c3)CC2)cc1 | 1130 nM |
| FC(F)(F)c1cccc(CNCC2CCN(CC3CCCCC3)CC2)c1 | 402 nM |
| CN1CCCN(Cc2ccc(-c3ccc(NC(=O)c4ccc(Cl)cc4)cc3)cc2)CC1 | 895 nM |
| O=C(Cn1nc(Br)nc1[N+](=O)[O-])NCC1CCCCC1 | 1100 nM |
| Cc1cccc2nc(-c3ccc(-c4ccc(CN5CCN(CC6CCCN(C)C6)CC5)cc4)s3)[nH]c12 (centres undefined) | 142 nM |
| CCc1nc(N)nc(N)c1-c1ccc(C(C)C)cc1 | 834 nM |

| SMILES | XC50 |
| --- | --- |
| c1cc(CNCCc2ccncc2)cc(-c2cccc(-c3nc4ccccc4[nH]3)c2)c1 | 146 nM |
| COCCn1c(Sc2ccc(C#N)c([N+](=O)[O-])c2)nnc1-c1ccc(N(C)C)cc1 | 1030 nM |
| Cc1[nH]c(C)c(-c2ccc(OCCCCSc3ccncc3)cc2)c(=O)c1Br | 246 nM |
| CN1CCC(N(Cc2ccc(N3CCN(Cc4c[nH]c5ccc(Cl)cc45)CC3)nc2)C2CC2)CC1 | 999 nM |
| Oc1ccccc1CNCC(O)c1cccc(C(F)(F)F)c1 (centres undefined) | 526 nM |
| COc1ccc(C(=O)CCc2ccc(O)cc2)cc1 | 483 nM |
| CCc1nc2nc(C)cc(Nc3ccc(F)c(Cl)c3)n2n1 | 974 nM |
| CCCN(CCC)CC(O)COc1ccccc1C(=O)Nc1ccccc1 (centres undefined) | 799 nM |
| CCCOc1cc(Cc2cnc(N)nc2N)cc(OC)c1OC | 1170 nM |
| COc1cc(Nc2nccc(-c3c(-c4cccc(NC(=O)c5c(F)cccc5F)c4)nn4ncccc34)n2)cc(OC)c1OC | 32.6 nM |
| CN1CC(c2ccc(Cl)c(Cl)c2)OC1=N (centres undefined) | 283 nM |
| S=C(NCCc1ccccc1)Nc1ccc2ncsc2c1 | 1400 nM |
| CC(C)(CNC(=O)/C=C/c1ccc(Cl)c(Cl)c1)CNc1cc(=O)c2ccccc2[nH]1 | 856 nM |
| Cc1nc(-c2cccc(NCc3ccccc3)c2)[nH]c1C | 863 nM |
| CCCc1cc(Cc2cnc(N)nc2N)cc(CCC)c1OC | 893 nM |
| CN1CCN(c2cc(-c3ccncc3)nc(-c3cccnc3)n2)CC1 | 809 nM |
| COc1ccccc1-c1sccc1C(=O)NC1(c2cc(Cl)cc(Cl)c2)CCCC1 | 938 nM |
| Cc1cccc2nc(-c3cccc(-c4cccc(C(=O)NCCc5cn(C)cn5)c4)c3)[nH]c12 | 588 nM |
| CC(C)N1CCN(C(=O)c2ccc(CNCCCN3CCN(c4ccccc4C(F)(F)F)CC3)s2)CC1 | 837 nM |
| COc1ccc(Nc2nc(NCc3cccnc3)cc(-c3ccc(OC)cc3)n2)cc1 | 1400 nM |
| C(=C(c1cccs1)c1cccs1)c1ccc(CNC2CCN(Cc3ccccc3)CC2)cc1 | 161 nM |
| c1ccc(COc2ccc(Nc3ncnc4cnc(-c5ccc(CN6CCCCC6)o5)cc34)cc2)cc1 | 967 nM |
| CCCN(CC)CCOC(=O)c1ccccc1 | 739 nM |
| CCOc1cc(C(=O)NC2CC(C)(C)N(C)C(C)(C)C2)ccc1-c1nc2cc(Cl)c(Cl)cc2[nH]1 | 861 nM |
| CC(=O)C1(c2ccccc2)CCN(CCC2(c3ccc(Cl)c(Cl)c3)CN(C(=O)Nc3cccc(C(F)(F)F)c3)CCO2)CC1 (centres undefined) | 1050 nM |

| SMILES | XC50 |
| --- | --- |
| COc1ccc2c(NN=Cc3cccc(Cl)c3)ccnc2c1 | 716 nM |
| CC(NCC(O)Cn1c2ccccc2c2ccccc21)c1ccccc1 (centres undefined) | 931 nM |
| N=C1NC(c2ccccc2)(c2ccccc2)C(=O)N1CC=Cc1ccccc1 | 598 nM |
| CCOC(=O)c1cn(CC)c2cc(N3CCCCCC3)c(F)cc2c1=O | 413 nM |
| O=S(=O)(NC1CCN(c2ccnc3cc(Cl)ccc23)C1)c1cccc(F)c1 (centres undefined) | 486 nM |
| O=C(N[C@@H](CC1CCCCC1)C(=O)NC1CC1)c1ccc(O)c(-c2cccc(C(F)(F)F)c2)c1 | 773 nM |
| CCOC(=O)c1ccc(N2CCN(CCCNC(=O)/C(=C/C=C/c3cc4cc(Cl)c(Cl)cc4[nH]3)OC)CC2)cc1 | 845 nM |
| NCCNc1ccc([N+](=O)[O-])cc1C(=O)Nc1cccc(C(F)(F)F)c1 | 905 nM |
| CS(=O)(=O)CCNCc1cc(-c2cc3ncnc(Nc4ccc(OCc5cccc(F)c5)c(Cl)c4)c3s2)cs1 | 326 nM |
| CCCC(CNCc1cccc(OC(F)(F)C(F)F)c1)CNc1cc(=O)c2ccccc2[nH]1 (centres undefined) | 595 nM |
| N#Cc1ccc(C=Cc2nccc3c2[nH]c2ccccc23)cc1 | 643 nM |
| CCCc1cc(C(=O)N[C@@H](Cc2ccccc2)[C@H](O)CNC(C)(C)c2cccc(OC)c2)c(F)c(N2CCCC2=O)c1 | 95.7 nM |
| Cc1nc(C)c(-c2cccc(Oc3ccc(Cl)cc3)c2)c(O)c1Br | 73.6 nM |
| Nc1c(Cl)cc(C(O)CNCCCCCCCCCc2ccccn2)cc1Cl (centres undefined) | 863 nM |
| COC(=O)c1c(C#N)c(OC)cc(O)c1CSC[C@@H](CN1CCCCC1)Nc1nc(-c2ccc([N+](=O)[O-])cc2)cs1 | 1270 nM |
| CCCCCCCN1CC[C@@H](CCCc2ccnc3ccc(OCCN4CCNCC4)cc23)[C@@H](CC)C1 | 771 nM |
| O=C(Nc1ccc(N2CCN(C(=O)/C=C/c3ccccc3)CC2)c(Cl)c1)c1ccc([N+](=O)[O-])o1 | 859 nM |
| COc1ccc(C(=O)C2CC2CN(C)CCC(O)c2ccc(Cl)c(Cl)c2)cc1 (centres undefined) | 873 nM |
| Cc1[nH]c2c(NCc3ccc(F)cc3)nccc2c1C | 1360 nM |
| Brc1ccc(Nc2nc3ccccc3nc2Nc2ccc(Br)cc2)cc1 | 783 nM |
| CC(C)NCc1ccc(-c2ccc(-c3nc4cc(C(F)(F)F)ccc4[nH]3)s2)cc1 | 181 nM |
| COc1cc(NC(=O)/C=C/c2cccc3cc[nH]c23)ccc1OCCN(C(C)C)C(C)C | 270 nM |
| CCCCN(CCCC)CCCN(CCCN(CCCC)CCCC)c1cc(C)nc(Nc2ccc3cc(Br)ccc3c2)n1 | 320 nM |
| Cc1cc(CN2CCC(Nc3ncc(-c4ccsc4)c4nc(C(F)(F)F)ccc34)CC2)no1 | 1100 nM |
| Cc1cc(N[C@@H](Cc2ccccc2)C(=O)NCCOc2ccccc2)nc(NCC2CCCCC2)n1 | 854 nM |

| SMILES | XC50 |
| --- | --- |
| O=C(Nc1ccc(Cl)cc1)c1ccc(CN2CCCN(Cc3ccsc3)CC2)cc1 | 862 nM |
| NC(=O)c1ccccc1OCC(=O)Nc1ccc(-c2cccc(-c3nc4cc(C(F)(F)F)ccc4[nH]3)c2)cc1 | 978 nM |
| COc1ccc(NC(=O)/C=C/c2ccccc2Cl)cc1OCCN1CCC(NCc2ccccc2)CC1 | 352 nM |
| CCCCCCNc1cc(C)nc(NC(=N)Nc2cccc(C(F)(F)F)c2)n1 | 739 nM |
| Clc1ccc2c(N3CCN(CCN4CCN(c5ccnc6cc(Cl)ccc56)CC4)CC3)ccnc2c1 | 128 nM |
| CCN(CC)C(C)(C)CN(Cc1ccc(-c2ccc(C(F)(F)F)cc2)cc1)C(=O)Cn1c(CCc2cccc(F)c2F)nc(=O)c2ccccc21 | 958 nM |
| NC1=NC2(CCCCC2)N(OCCCCCCC2CCCCC2)C(N)=N1 | 356 nM |
| O=C(NC1CCN(Cc2ccccc2)CC1)c1csc2nc(-c3ccc(Cl)cc3)cn12 | 911 nM |
| Cc1ccc(C)c(C=CC(=O)NC2CCC(CN3CCC(c4c[nH]c5ccccc45)CC3)CC2)c1 (centres undefined) | 765 nM |
| O=C(NCCc1ccc(Cl)c(Cl)c1)c1ccc(CNC(=O)c2ccc(O)c(-c3ccc(Cl)c(Cl)c3)c2)cc1 | 812 nM |
| Cc1cc(Nc2ccccc2)nc(NCCOc2ccccc2)n1 | 728 nM |
| Nc1ccn([C@@H]2O[C@H](COC(c3ccccc3)(c3ccccc3)c3ccccc3)[C@@H](O)[C@@H]2O)c(=O)n1 | 834 nM |
| CC(=O)Nc1ccc(NC(=O)c2cc(-c3cc(Cl)ccc3O)n[nH]2)cc1 | 176 nM |
| CCCCCCCN1CCC(CC(=O)Nc2ccnc3ccc(OC)cc23)C(CC)C1 (centres undefined) | 593 nM |
| COc1ccccc1Cn1ccnc1SCC(=O)Nc1cccc(C(F)(F)F)c1 | 907 nM |
| CC1(CCCCN2CCC(Cc3ccccc3)CC2)C(=O)Nc2ccccc21 (centres undefined) | 855 nM |
| C#CCCC(=O)Nc1cccc(-c2cccc(-c3nc4cc(C(F)(F)F)ccc4[nH]3)c2)c1 | 805 nM |
| O=C(CCc1c[nH]cn1)Nc1cccc(-c2ccc(-c3nc4ccccc4[nH]3)s2)c1 | 759 nM |
| Nc1c2ccccc2nc2cc([N+](=O)[O-])ccc12 | 870 nM |
| CCc1cc(I)c2c(c1)C(NCCCNc1cc(=O)c3ccccc3[nH]1)CCN2 (centres undefined) | 887 nM |
| CCOC(=O)NCC(=O)Nc1cccc(-c2cccc(-c3nc4cccc(C)c4[nH]3)c2)c1 | 740 nM |
| CCOC(=O)c1ccc(NC(=O)Nc2ccc(-c3ccc(-c4nc5ccccc5[nH]4)cc3)cc2)cc1 | 22.3 nM |
| c1ccc2oc(-c3cc4ccncc4cc3OC3CCNCC3)cc2c1 | 1470 nM |
